Laboratory results reported in paper doi:10.1101/2025.08.06.668955, “High-Affinity, Structure-Validated and Selective Macrocyclic Peptide Tools for Chemical Biology Studies of Huntingtin” (bioRxiv, 2025).
Where a SMILES comes first, the peptide text is derived from it. Bridges are numbered along the chain shown (N, C = ends). Primed or numbered codes have the meaning given here. Where no end group is shown, it is not given here. [ ]: non-standard residue; d: D form. FITC′ = not defined here

Key:
[1] = test system: endogenous HTT; assay: Macrocycle precipitation (MP) of endogenous HTT from HEK293T cell extracts; format: binding, human; details: HEK293 cell lysate, 2 mg protein, streptavidin beads conjugated at 1.25 μM macrocycle, 1 hour at 4°C
Description: To explore binding and selectivity within a more physiological context, we used biotinylated derivatives of macrocycles to affinity purify HTT from cellular extracts, which we term “macrocycle precipitations” (MPs)(Figure 5a). The macrocycles were joined to the biotin using either a 2 amino acid linker (AK-Bio) or a PEG11 spacer (PEG11-Bio) (Supplementary Figure 12a). Extracts were prepared from HEK293T cells, including HTT knock-out lines and streptavidin beads were used to attempt to capture macrocycle–HTT complexes, and potentially associated binding partners.
(§1) Macrocycles were pre-conjugated to streptavidin beads (Cytiva, 17-5113-01) by incubating with a 30 μL slurry of beads per macrocycle purification (MP) in Lysis Buffer (10 mM Tris-HCl, pH 7.9, 150 mM NaCl, 0.1% NP-40, 1:500 protease inhibitor cocktail (Sigma-Aldrich), 1:1,000 benzonase nuclease, and 2 mM MgCl2) for 1 hour at 4°C. A concentration of 1.25 μM macrocycle was used for conjugation. After incubation, beads were washed three times with 500 μL Lysis Buffer to remove unbound macrocycles and resuspended in 500 μL of lysate at 4 mg/mL protein concentration.
(§2) Cells were harvested by centrifugation at 1,500 rpm for 5 minutes, washed twice with PBS, and snap-frozen. Cell pellets were then resuspended in 500 μL of Lysis Buffer (as described above) and incubated on an end-over-end rotator at 4°C for 1 hour. Lysates were clarified by centrifugation at 20,000g for 15 minutes at 4°C, and the supernatant was transferred to fresh 1.5 mL Eppendorf tubes. Protein concentration was determined by BCA assay (Thermo Fisher Scientific, 23225), yielding approximately 4 mg of protein on average. Lysates were diluted to a final concentration of 4 mg/mL for use, providing […] of total protein per MP.
(§3) Macrocycle-conjugated beads were incubated with 2 mg of lysate in Lysis Buffer for 1 hour at 4°C with rotation. After incubation, beads were collected by centrifugation at 3,000 rpm, and the flow-through was saved for analysis. Beads were then washed sequentially with 1 mL of Wash Buffer 1 (10 mM Tris-HCl, pH 7.9, 100 mM NaCl, 0.1% NP-40) and twice with Wash Buffer 2 (Wash Buffer 1 without detergent). Lastly, bound proteins were eluted from the beads with 200 μL of 0.5 M NH4OH and flash-frozen in liquid nitrogen.
All sample preparation, LC MS/MS data collection, and MS data searches were carried out at the SPARC BioCentre at The Hospital for Sick Children (Toronto, ON, Canada). Samples were reduced with DTT (10 mM, 60°C, 1 hour), alkylated with iodoacetamide (20 mM, room temperature, 45 min, dark), and digested overnight at 37°C with trypsin ([…]; Pierce). Peptides were dried by vacuum centrifugation, desalted on C18 ziptips (Millipore) using a DigestPro MSi (Intavis Bioanalytical Instruments), and dried again by vacuum centrifugation before resuspension in Buffer A (0.1% formic acid (v/v) in water). Samples were analyzed by liquid chromatography tandem mass spectrometry (LC-MS/MS) using an EASY-nanoLC 1200 system with a 1 h analysis and an Orbitrap Fusion™ Lumos™ Tribrid™ Mass Spectrometer (Thermo Fisher Scientific). The LC portion of the analysis consisted of a 18 min linear gradient running 3–20% of Buffer A to Buffer B (0.1% formic acid (v/v) in […]), followed by a 31 min linear gradient running 20–35% of Buffer A to Buffer B, a 2 min ramp to 100% Buffer B and 9 min hold at 100% Buffer B, all at a flow rate of 250 nL/min. Samples were loaded into a […] × 2 cm Acclaim PepMap 100 Pre-column followed by a 75 μm × 50 cm PepMax RSLC EASY-Spray analytical column filled with […] C18 beads (Thermo Fisher Scientific). MS1 acquisition resolution was set to 120000 with an automatic gain control (AGC) target value of 4 × 105 and maximum ion injection time (IT) of 50 ms for a scan range of m/z 375–1500, with dynamic exclusion set to 10 s. Isolation for MS2 scans was performed in the quadrupole with an isolation window of m/z 0.7. […]

[2] = test system: HAP40; assay: Macrocycle precipitation (MP), co-purification of HAP40, LC-MS/MS; format: binding, human; details: HEK293T lysate versus HTT CRISPR knockout line
Text: To assess macrocycle selectivity and identify potential HTT interacting proteins, we performed LC-MS/MS analysis of the proteins in the MP eluates. To control for non-specific binding, we performed MPs using lysates from a HTT CRISPR knockout cell line ([Jung et al., 2021]). Across all macrocycles, HTT emerged as the most enriched protein after background subtraction (Figure 5b). Given we performed affinity purification using macrocycles targeting distinct HTT surfaces, we hypothesized that any real HTT protein binder might be co-purified with two or more macrocycles. […] In contrast, HAP40 was not enriched by HL5, consistent with its specificity for apo HTT.
as §1, §2, §3
All sample preparation, LC MS/MS data collection, and MS data searches were carried out at the SPARC BioCentre at The Hospital for Sick Children (Toronto, ON, Canada). […] Samples were analyzed by liquid chromatography tandem mass spectrometry (LC-MS/MS) using an EASY-nanoLC 1200 system with a 1 h analysis and an Orbitrap Fusion™ Lumos™ Tribrid™ Mass Spectrometer (Thermo Fisher Scientific). […]

[3] = biological target: T1, HTTQ23-HAP40 (Homo sapiens, UniProt P23610+P42858, INS38QQ); assay: Thermal shift assay (DSF), HTTQ23-HAP40; format: binding; details: SYPRO Orange, 0.25 mg/mL protein, macrocycle up to 10 μM, 2.5% DMSO, n=3
T1 construct: Full-length wildtype HTT with a polyQ tract of 23 glutamines; FLAG; made in house; host or cells: Sf9 insect cells (baculovirus)
Description: In an Axygen® 384-well PCR microplate (REF# PCR-384-LC480-W-NF, Corning), samples were mixed to yield a final concentration of 0.25 mg/mL Q54 or Q23/HAP40, a 5-pt 2-fold serial dilution of each macrocycle (top concentration of 10 μM, 2.5% DMSO), and 5X SYPRO™ Orange (CAT# S6650, Thermo Fisher Scientific) in buffer (20 mM HEPES pH 7.4, 150 mM NaCl, 1 mM TCEP, 0.005% Tween-20). Differential Scanning Fluorimetry (DSF) was performed using a LightCycler® 480 (Roche LifeSciences) set to a 4 °C/min temperature ramp (20–95 °C) and fluorescence detection at 580 nm. Melting temperatures (Tm) were obtained from the minima of the negative derivative of each curve. The propagated error of the thermal shift (ΔTm) was calculated from the standard deviation of each Tm mean (n=3). To ensure a maximally macrocycle-bound fraction (KD ~10 nM; ~100% bound) at 0.25 mg/mL HTT or HTT-HAP40 (~0.7 μM), the upper limit of macrocycle tested was 10 μM.
98 Supplementary Figure. 10. Thermal shift (ΔTm) induced by macrocycle binding. Melting
99 temperature of HTTQ54 (left) with HL5 or HL2 minus HTTQ54 with DMSO (46.5 °C), and (right)
100 HTTQ23-HAP40 with HD4, HL2, HL5, HHD2, HHD3, or HHL1 minus HTTQ23-HAP40 with DMSO
101 (51.0 °C). ΔTm significance was determined using an unpaired t-test with Welch correction,
102 comparing to the mean Tm of Q54 or Q23-HAP40 with DMSO; *P < 0.05, **P < 0.01, ***P <
103 0.001. The summary table reports the ΔTm and exact P value at the highest concentration tested
(1 picture or pasted object on this page, not shown here)

[4] = biological target: HTTQ54-HAP40 (UniProt P23610 1-371); assay: FP
HTTQ54-HAP40, sequence (P42858 other isoform, or with tags, fused parts or gaps, chain 1 of 2): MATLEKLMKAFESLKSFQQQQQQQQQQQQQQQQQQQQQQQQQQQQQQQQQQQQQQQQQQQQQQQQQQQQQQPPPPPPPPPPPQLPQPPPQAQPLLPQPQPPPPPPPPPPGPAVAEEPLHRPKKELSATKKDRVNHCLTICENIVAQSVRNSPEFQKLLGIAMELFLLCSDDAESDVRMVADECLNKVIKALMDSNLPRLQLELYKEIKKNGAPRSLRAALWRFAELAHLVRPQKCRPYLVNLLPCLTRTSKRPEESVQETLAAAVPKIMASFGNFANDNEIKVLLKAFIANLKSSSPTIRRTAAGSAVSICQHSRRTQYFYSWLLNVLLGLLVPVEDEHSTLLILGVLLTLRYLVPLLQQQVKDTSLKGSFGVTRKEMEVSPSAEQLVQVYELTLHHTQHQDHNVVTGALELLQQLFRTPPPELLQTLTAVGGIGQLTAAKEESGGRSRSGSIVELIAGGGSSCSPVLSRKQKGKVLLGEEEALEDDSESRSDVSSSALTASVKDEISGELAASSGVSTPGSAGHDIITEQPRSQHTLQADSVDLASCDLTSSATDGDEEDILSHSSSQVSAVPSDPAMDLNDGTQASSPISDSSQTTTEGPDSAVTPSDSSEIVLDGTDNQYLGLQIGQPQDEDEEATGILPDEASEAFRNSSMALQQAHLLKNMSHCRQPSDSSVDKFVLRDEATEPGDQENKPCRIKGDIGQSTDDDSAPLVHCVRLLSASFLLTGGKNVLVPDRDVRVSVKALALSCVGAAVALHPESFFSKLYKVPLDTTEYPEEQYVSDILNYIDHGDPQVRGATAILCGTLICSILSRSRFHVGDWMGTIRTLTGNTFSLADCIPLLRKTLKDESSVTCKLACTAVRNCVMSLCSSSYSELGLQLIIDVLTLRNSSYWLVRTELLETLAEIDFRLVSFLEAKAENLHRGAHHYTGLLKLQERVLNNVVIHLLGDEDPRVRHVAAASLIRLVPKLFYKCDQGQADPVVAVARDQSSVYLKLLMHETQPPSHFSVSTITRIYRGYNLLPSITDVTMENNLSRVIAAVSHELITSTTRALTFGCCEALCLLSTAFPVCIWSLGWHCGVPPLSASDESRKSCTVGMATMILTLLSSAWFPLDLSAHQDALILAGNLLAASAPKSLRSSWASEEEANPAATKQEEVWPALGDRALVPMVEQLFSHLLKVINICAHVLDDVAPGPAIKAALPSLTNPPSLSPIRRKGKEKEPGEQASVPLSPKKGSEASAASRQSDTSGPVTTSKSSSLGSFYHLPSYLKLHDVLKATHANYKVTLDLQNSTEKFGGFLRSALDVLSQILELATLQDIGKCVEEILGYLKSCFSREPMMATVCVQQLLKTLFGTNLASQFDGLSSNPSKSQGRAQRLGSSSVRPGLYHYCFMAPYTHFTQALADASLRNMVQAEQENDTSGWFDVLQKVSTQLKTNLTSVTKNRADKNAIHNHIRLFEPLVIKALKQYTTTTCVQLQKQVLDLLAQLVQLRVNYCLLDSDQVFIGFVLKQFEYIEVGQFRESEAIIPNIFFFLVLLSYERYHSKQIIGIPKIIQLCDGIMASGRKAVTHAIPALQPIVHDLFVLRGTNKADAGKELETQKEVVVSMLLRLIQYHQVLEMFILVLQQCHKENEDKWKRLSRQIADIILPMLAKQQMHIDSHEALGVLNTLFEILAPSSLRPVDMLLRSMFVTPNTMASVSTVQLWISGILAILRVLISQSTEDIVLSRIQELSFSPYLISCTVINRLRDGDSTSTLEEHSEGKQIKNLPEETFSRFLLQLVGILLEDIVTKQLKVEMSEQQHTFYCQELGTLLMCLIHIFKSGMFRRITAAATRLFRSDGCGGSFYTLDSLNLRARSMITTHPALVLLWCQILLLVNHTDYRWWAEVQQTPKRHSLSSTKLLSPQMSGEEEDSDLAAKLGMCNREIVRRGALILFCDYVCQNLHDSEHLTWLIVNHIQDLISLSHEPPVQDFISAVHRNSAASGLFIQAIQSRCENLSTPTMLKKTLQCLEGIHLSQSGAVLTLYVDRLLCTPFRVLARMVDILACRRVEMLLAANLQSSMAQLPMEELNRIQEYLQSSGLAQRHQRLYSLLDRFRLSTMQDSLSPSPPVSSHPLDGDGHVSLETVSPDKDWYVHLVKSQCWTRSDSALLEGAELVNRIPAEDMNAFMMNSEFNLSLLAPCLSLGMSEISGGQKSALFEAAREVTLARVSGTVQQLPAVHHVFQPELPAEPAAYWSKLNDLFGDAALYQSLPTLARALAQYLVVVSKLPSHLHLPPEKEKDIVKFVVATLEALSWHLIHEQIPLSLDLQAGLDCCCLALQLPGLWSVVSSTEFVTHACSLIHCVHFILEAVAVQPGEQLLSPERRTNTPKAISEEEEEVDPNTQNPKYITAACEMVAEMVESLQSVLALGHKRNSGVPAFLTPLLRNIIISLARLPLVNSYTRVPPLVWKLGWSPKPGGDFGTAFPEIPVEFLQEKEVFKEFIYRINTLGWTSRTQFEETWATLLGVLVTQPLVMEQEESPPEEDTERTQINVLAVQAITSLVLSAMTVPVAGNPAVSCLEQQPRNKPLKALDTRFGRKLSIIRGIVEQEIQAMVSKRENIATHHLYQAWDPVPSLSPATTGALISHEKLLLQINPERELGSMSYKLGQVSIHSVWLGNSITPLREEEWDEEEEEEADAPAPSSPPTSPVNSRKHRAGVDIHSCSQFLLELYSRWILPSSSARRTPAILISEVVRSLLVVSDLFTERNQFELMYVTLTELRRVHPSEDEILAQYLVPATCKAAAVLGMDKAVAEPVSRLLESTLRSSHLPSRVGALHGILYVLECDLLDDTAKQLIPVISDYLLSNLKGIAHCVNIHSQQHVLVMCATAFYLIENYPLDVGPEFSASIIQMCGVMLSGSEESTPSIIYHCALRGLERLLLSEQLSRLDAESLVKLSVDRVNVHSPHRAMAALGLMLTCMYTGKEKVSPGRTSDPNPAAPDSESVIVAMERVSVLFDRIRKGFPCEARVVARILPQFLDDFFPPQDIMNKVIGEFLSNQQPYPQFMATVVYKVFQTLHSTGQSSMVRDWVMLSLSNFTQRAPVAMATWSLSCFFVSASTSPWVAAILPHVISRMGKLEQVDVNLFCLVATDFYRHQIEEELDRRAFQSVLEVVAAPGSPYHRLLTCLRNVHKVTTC
HTTQ54-HAP40, sequence (P23610 whole entry, chain 2 of 2): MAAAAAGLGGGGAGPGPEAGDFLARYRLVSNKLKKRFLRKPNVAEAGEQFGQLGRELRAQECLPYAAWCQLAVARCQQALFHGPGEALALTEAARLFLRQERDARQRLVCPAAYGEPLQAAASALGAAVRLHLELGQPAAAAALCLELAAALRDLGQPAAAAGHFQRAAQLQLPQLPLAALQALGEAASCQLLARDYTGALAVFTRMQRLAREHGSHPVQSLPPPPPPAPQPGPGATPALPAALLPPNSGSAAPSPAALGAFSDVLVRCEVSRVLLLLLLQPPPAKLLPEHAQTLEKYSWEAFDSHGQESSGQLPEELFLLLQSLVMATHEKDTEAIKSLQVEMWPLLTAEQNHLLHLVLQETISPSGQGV

[5] = biological target: C-terminally biotinylated HTTQ23 in complex with HAP40 (UniProt P23610 1-371, biotin on the C-terminal Avi-tag); assay: SPR

Row | Molecule | Capture of endogenous HTT by immobilized biotinylated macrocycle [1] | further results
1 | HD4-AK-Bio: biotinylated derivative of HD4 with a 2 amino acid linker (AK-Bio) (Ac-[dY]DIWCETNKQTGILVLCAK; thioether (positions not given here); also: thioether to downstream Cys, which of Cys5/Cys17 not given here, biotin joined via AK linker, site not given here) | captured | –
2 | HHL1-AK-Bio: biotinylated derivative of HHL1 with a 2 amino acid linker (AK-Bio) ({CH2CO}-YLIRSSFNWFVFVEVPCAK; thioether N-17 (inferred); also: biotin joined via 2 amino acid linker AK) | no detectable binding | –
3 | HL2-PEG11-Bio: biotinylated derivative of HL2 with a PEG11 spacer ({CH2CO}-YTARYLTLGTLHYKC; thioether N-15 (inferred); also: biotin joined via PEG11 spacer) | captured | –
4 | HHD3-AK-Bio: biotinylated derivative of HHD3 with a 2 amino acid linker (AK-Bio) ({CH2CO}-[dY]TRHWQNNWWILYHEFCAK; thioether N-17 (inferred); also: biotin joined via AK linker, site not given here) | captured | –
5 | HL5-PEG11-Bio: biotinylated derivative of HL5 with a PEG11 spacer ({CH2CO}-YTHFQVAPWIQSLC; thioether N-14 (inferred); also: biotin joined via PEG11 spacer) | captured | –
6 | HHL1-PEG11-Bio: biotinylated derivative of HHL1 with a PEG11 spacer ({CH2CO}-YLIRSSFNWFVFVEVPC; thioether N-17 (inferred); also: biotin joined via PEG11 spacer) | no detectable binding | –
7 | CC[C@H](C)[C@H](NC(=O)CNC(=O)[C@@H](NC(=O)[C@H](CCC(N)=O)NC(=O)[C@H](CCCCN)NC(=O)[C@H](CC(N)=O)NC(=O)[C@@H](NC(=O)[C@H](CCC(=O)O)NC(=O)[C@@H]1CSCC(=O)N[C@H](Cc2ccc(O)cc2)C(=O)N[C@@H](CC(=O)O)C(=O)N[C@@H]([C@@H](C)CC)C(=O)N[C@@H](Cc2c[nH]c3ccccc23)C(=O)N1)[C@@H](C)O)[C@@H](C)O)C(=O)N[C@@H](CC(C)C)C(=O)N[C@H](C(=O)N[C@@H](CC(C)C)C(=O)N[C@@H](CS)C(N)=O)C(C)C [HD4] ({CH2CO}-[dY]DIWCETNKQTGILVLC-NH2; thioether N-5) | – | Enrichment of HAP40 in macrocycle pulldowns [2]: consistently enriched; Thermal shift (ΔTm) of HTTQ23-HAP40 induced by macrocycle [3]: No significant thermal effects
8 | {CH2CO}-YTARYLTLGTLHYKC-{FITC′} (thioether N-15 (inferred); not fully specified) [FITC-labeled HL2] | – | Kd [4]: 4 nM
9 | {CH2CO}-[dY]TRHWQNNWWILYHEFC-{FITC′} (thioether N-17 (inferred); not fully specified) [FITC-labeled HHD3] | – | Kd [4]: 2.6 nM
10 | {CH2CO}-YTARYLTLGTLHYKC (thioether N-15 (inferred)) [HL2] | – | Kd [5]: 2 nM
11 | {CH2CO}-YLIRSSFNWFVFVEVPC-{FITC′} (thioether N-17 (inferred); not fully specified) [FITC-labeled HHL1] | – | Kd [4]: 2.6 nM
